Measured values from patent US20110263580A1, “METHOD FOR TREATING ALZHEIMER'S DISEASE AND RELATED CONDITIONS” (priority 2008, published 2011).
Where two headings read alike, the source gives them in different places.

How the values were obtained:
[1] = rhesus monkey, in vivo; for Tolerated: po
Method: Compound IA (synthesis example 2 herein) was administered orally to groups of rhesus monkeys by continuous and intermittent regimens over periods of days or weeks. Physical signs were recorded and the absence of loose stool, and other overt physical signs, was taken as tolerance.

Aβ [2] = assay: CSF levels of Aβ post-dose in rhesus monkey; format: in vivo
[3] = Plasma levels of the drug after a single dose in mice; format: in vivo; conditions: single dose of 300 mg/Kg
Method: (§1) Compound IIIA (prepared as described in Sparey et al, Bioorg. Med. Chem. Lett. (2005) 15, 4212-4216) was administered orally to groups of mice (n=10) via gavage in 0.5% methylcellulose by a variety of continuous and intermittent regimens over periods of several weeks, and body weights recorded twice-weekly as a measure of tolerance or otherwise of the drug treatment. Less than 20% loss of body weight after 21 days, with no other overt symptoms, was taken as tolerance, and the results are summarised in the following table:
(§2) Plasma levels of Aβ were monitored 4 hours, 1 day, 3 days, 4 days and 7 days after a single dose of 300 mg/Kg, and found to be (respectively), 0%, 0%, 0%, 67% and 85% of the baseline (control) level, indicating prolonged therapeutic efficacy from the single dose. Plasma levels of the drug had declined to zero within 4 days of the single dose.

[4] = mouse, in vivo, po
Method: as §1, with “table: […]” for “table:”

Aβ [5] = assay: Plasma levels of Aβ after a single dose in mice; format: in vivo; conditions: single dose of 300 mg/Kg
Method: as §1, §2

[6] = Side effects in rhesus monkeys, once-weekly dosing; format: in vivo; conditions: oral, once-weekly 30 mpk
Method: (§3) Compound VIB (Example 23 herein) was administered orally to rhesus monkeys once-weekly at a dose of 30 mpk and levels of Aβ40 and Aβ42 in the cerebrospinal fluid (CSF) were monitored.

Aβ40 = assay: CSF Aβ40 in rhesus monkeys, once-weekly dosing; format: in vivo; conditions: oral, once-weekly 30 mpk, over a 3 week period, relative to vehicle-treated controls
Method: as §3

Aβ42 = assay: CSF Aβ42 in rhesus monkeys, once-weekly dosing; format: in vivo; conditions: oral, once-weekly 30 mpk, over a 3 week period, relative to vehicle-treated controls
Method: as §3

O=S(=O)(N[C@H]1C[C@@](c2cc(F)ccc2F)(S(=O)(=O)c2ccc(Cl)cc2)C1)C(F)(F)F [Compound IA, N-[cis-3-[(4-chlorophenyl)sulfonyl]-3-(2,5-difluorophenyl)cyclobutyl]-1,1,1-trifluoromethanesulfonamide]
Tolerance [1]: tolerated
Tolerated ([1]; 3 mg/kg): No
Tolerated ([1]; 50 mg/kg): Yes
Tolerated ([1]; 200 mg/kg): Yes
Effect on CSF levels of Aβ (Aβ [2]; doses below 10 mg/Kg): do not effect Aβ levels appreciably
Effect on CSF levels of Aβ (Aβ [2]; weekly doses): lower CSF Aβ significantly

O=S1(=O)NC2(CN1CC(F)(F)F)C1CCC2Cc2cc(C=CCN3CCC(C(F)(F)F)CC3)ccc2C1 (stereo not shown) [Compound IIIA]
Time until plasma levels of the drug had declined to zero [3]: ≤ 4 days
Tolerated ([4]; 50 mg/kg): Yes
Tolerated ([4]; 150 mg/kg): No
Tolerated ([4]; 300 mg/kg): Yes
Plasma levels of Aβ, % of the baseline (control) level (Aβ [5]; 4 hours after dose): 0%
Plasma levels of Aβ, % of the baseline (control) level (Aβ [5]; 1 day after dose): 0%
Plasma levels of Aβ, % of the baseline (control) level (Aβ [5]; 3 days after dose): 0%
Plasma levels of Aβ, % of the baseline (control) level (Aβ [5]; 4 days after dose): 67%
Plasma levels of Aβ, % of the baseline (control) level (Aβ [5]; 7 days after dose): 85%

O=S(=O)(N[C@H]1CC[C@@](c2cc(F)ccc2C(F)(F)F)(S(=O)(=O)c2ccc(C(F)(F)F)cc2)CC1)C(F)(F)F [Compound VIB, 1,1,1-trifluoro-N-(4-[5-fluoro-2-(trifluoromethyl)phenyl]-4-{[4-(trifluoromethyl)phenyl]sulfonyl}cyclohexyl)methanesulfonamide]
GI toxicity ([6]; 3 week period): no evidence of GI toxicity
Other side-effects (study terminated after 3 weeks) ([6]; unconnected with Notch signalling): respiratory side-effects
Average reduction in CSF Aβ40 levels (Aβ40): approximately 40%
Average reduction in CSF Aβ42 levels (Aβ42): approximately 40%
